Test results from ChEMBL document CHEMBL1125432, “Generation of N-methyl-D-aspartate agonist and competitive antagonist pharmacophore models. Design and synthesis of phosphonoalkyl-substituted tetrahydroisoquinolines as novel antagonists” (J Med Chem, 1992).

Biological target: Glutamate NMDA receptor
Experiment: Compound was evaluated for its ability to displace [3H]Glu/[3H]-AP5 from rat brain membrane
Format: tissue-based

IC50 | SMILES
100 µM | O=C(O)[C@H]1CCN[C@H](C(=O)O)C1
100 µM | O=C(O)[C@H]1NCCC[C@H]1C(=O)O
110 µM | Cc1o[nH]c(=O)c1C(N)C(=O)O (configuration not stated)
100 µM | O=C(O)c1cccnc1C(=O)O [QUINOLINIC ACID]
10 µM | O=C(O)[C@H]1CCCN[C@@H]1C(=O)O

SMILES | IC50
C=C(C)[C@@H]1CN[C@@H](C(=O)O)[C@@H]1CC(=O)O | 100 µM

Biological target: T1, Glutamate NMDA receptor (Rattus norvegicus) (UniProt P35439+Q00959+Q00960+Q00961+Q62645+Q8VHN2+Q9R1M7)
Experiment: Ability to displace [3H]CPP from NMDA receptor in rat brain membrane was evaluated at 10e-4 M
Format: cell membranes

inhibition | SMILES
35% | NC(C(=O)O)c1cccc(CCP(=O)(O)O)c1 (configuration not stated)
0% | O=C(O)C1Cc2ccc(CCP(=O)(O)O)cc2CN1 (configuration not stated)
0% | O=C(O)C1Cc2ccc(CP(=O)(O)O)cc2CN1 (configuration not stated)
3% | NC(Cc1ccccc1P(=O)(O)O)C(=O)O (configuration not stated)
0% | O=C(O)C1Cc2ccc(P(=O)(O)O)cc2CN1 (configuration not stated)

Biological target: Glutamate NMDA receptor
Experiment: Ability to displace [3H]CPP from NMDA receptor in rat brain membrane
Format: cell membranes

IC50 | SMILES
> 100 µM | O=C(O)CNCc1cccc(P(=O)(O)O)c1
8.4 µM | NC(Cc1ccccc1CP(=O)(O)O)C(=O)O (configuration not stated)
100 µM | O=C(O)C1CC(CCP(=O)(O)O)C2CCCCC2N1 (configuration not stated)
0.082 µM | O=C(O)C1CN(CCCP(=O)(O)O)CCN1 (configuration not stated)
83 µM | O=C(O)C1CN(Cc2cccc(P(=O)(O)O)c2)CCN1 (configuration not stated)
0.85 µM | O=C(O)C1CC(CP(=O)(O)O)c2ccccc2N1 (configuration not stated)
0.054 µM | O=C(O)[C@@H]1C[C@H](CP(=O)(O)O)CCN1 [SELFOTEL]
50 µM | NC(Cc1cccc(C(Br)P(=O)(O)O)c1)C(=O)O (configuration not stated)
0.66 µM | NC(C(=O)O)c1ccc(CP(=O)(O)O)s1 (configuration not stated)
21 µM | Cc1cc(C(N)C(=O)O)c(C)cc1CP(=O)(O)O (configuration not stated)
10 µM | Cc1cc(CP(=O)(O)O)cc(C(=O)O)n1
2.2 µM | O=C(O)CNCc1cccc(CP(=O)(O)O)c1
74 µM | NC(C(=O)O)c1ccc(CP(=O)(O)O)c2ccccc12 (configuration not stated)
> 100 µM | NC(C(=O)O)c1cccc(CCP(=O)(O)O)c1 (configuration not stated)
0.79 µM | O=C(O)CCCN1CCN[C@@H](C(=O)O)C1
0.27 µM | O=C(O)C1Cc2c(CCP(=O)(O)O)cccc2CN1 (configuration not stated)
13 µM | NC(CCCC(=O)O)C(=O)O (configuration not stated)
1.95 µM | O=C(O)C1Cc2c(cccc2CP(=O)(O)O)CN1 (configuration not stated)

IC50 | SMILES
> 100 µM | NC(C(=O)O)c1ccc(CCCP(=O)(O)O)cc1 (configuration not stated)
> 100 µM | NC(Cc1ccc(CP(=O)(O)O)cc1)C(=O)O (configuration not stated)
13 µM | NC(C(=O)O)C1CCC(CP(=O)(O)O)CC1 (configuration not stated)
> 100 µM | O=C(O)CNCc1ccccc1CP(=O)(O)O
2.7 µM | O=C(O)C1NCCc2ccc(P(=O)(O)O)cc21 (configuration not stated)
2.8 µM | NC(Cc1cccc(CP(=O)(O)O)c1)C(=O)O (configuration not stated)
> 100 µM | NC(C(=O)O)c1ccc(CCP(=O)(O)O)cc1 (configuration not stated)
4.08 µM | O=C(O)C1Cc2cc(CP(=O)(O)O)ccc2CN1 (configuration not stated)
0.99 µM | NC(C(=O)O)c1ccc(CP(=O)(O)O)cc1 (configuration not stated)
> 100 µM | NC(Cc1cccc(CCP(=O)(O)O)c1)C(=O)O (configuration not stated)
24 µM | NC(C(=O)O)c1ccc(CP(=O)(O)O)cc1Br (configuration not stated)
> 100 µM | NC(Cc1ccc(P(=O)(O)O)cc1)C(=O)O (configuration not stated)
> 100 µM | NC(Cc1ccccc1P(=O)(O)O)C(=O)O (configuration not stated)
5.9 µM | NC(C(=O)O)c1ccc(CP(=O)(O)O)o1 (configuration not stated)
1.6 µM | O=C(O)C1CN(C2CCC(P(=O)(O)O)C2)CCN1 (configuration not stated)
0.82 µM | O=C(O)C1Cc2c(cccc2P(=O)(O)O)CN1 (configuration not stated)
5.8 µM | O=C(O)[C@H]1CN(C(c2ccccc2)P(=O)(O)O)CCN1 (some centres not stated)

SMILES | IC50
NC(C(=O)O)c1cc(=O)[nH]o1 (configuration not stated) | 10 µM
NC(C[S+]([O-])CP(=O)(O)O)C(=O)O (configuration not stated) | 0.14 µM
NC(C#CP(=O)(O)O)C(=O)O (configuration not stated) | 0.45 µM
C/C(=C\C(N)C(=O)O)CP(=O)(O)O (configuration not stated) [CGP-37849] | 0.035 µM
O=C(O)C1CC(CP(=O)(O)O)C2CCCCC2N1 (configuration not stated) | 9.2 µM
O=C(O)Cc1cccnc1C(=O)O | 10 µM
NC(C/C=C/P(=O)(O)O)C(=O)O (configuration not stated) | > 10 µM
O=P(O)(O)CCCN1CCNCC1 | > 100 µM

Biological target: Glutamate NMDA receptor
Experiment: Displacement of [3H]CPP from N-methyl-D-aspartate glutamate receptor in rat brain membrane
Format: cell membranes

IC50 | SMILES
25 µM | NC(C(=O)O)c1cccc(C(=O)O)c1 (configuration not stated)
32 µM | O=C(O)C1CN(CCCP(=O)(O)O)C(=O)CN1 (configuration not stated)
> 100 µM | NC(C(=O)O)c1ccc(P(=O)(O)O)cc1 (configuration not stated)
37.2 µM | O=C(O)C1NCCc2ccc(CP(=O)(O)O)cc21 (configuration not stated)
10 µM | N[C@H](C(=O)O)[C@H]1C[C@H]1C(=O)O
0.8 µM | CC([C@H]1CCN[C@H](C(=O)O)C1)P(=O)(O)O (some centres not stated)
61 µM | O=C(O)C1NCCc2cc(CP(=O)(O)O)ccc21 (configuration not stated)
3.3 µM | NC(Cc1cccc(CP(=O)(O)O)c1)C(=O)O (configuration not stated)
5.2 µM | O=C(O)CNCc1ccc(CP(=O)(O)O)cc1
> 100 µM | Cc1c(CP(=O)(O)O)ccnc1C(=O)O
> 100 µM | O=C(O)C1CN(Cc2ccccc2P(=O)(O)O)CCN1 (configuration not stated)
10 µM | N[C@H](CC(=O)O)C(=O)O [D-ASPARTATE]
> 100 µM | O=C(O)C1CN(Cc2ccccc2CP(=O)(O)O)CCN1 (configuration not stated)
30 µM | O=C1CN(CCCP(=O)(O)O)CC(C(=O)O)N1 (configuration not stated)
10 µM | N[C@@H](CC(=O)O)C(=O)O [ASPARTIC ACID]
14.5 µM | O=C(O)CCc1cccc2c1CCNC2C(=O)O (configuration not stated)
50 µM | NC(C(=O)O)c1cc(CP(=O)(O)O)cc(-c2ccccc2)c1 (configuration not stated)
> 100 µM | NC(CCCCC(N)C(=O)O)C(=O)O (configuration not stated)
< 0.1 µM | N[C@H](C(=O)O)[C@@H]1C[C@@H]1C(=O)O
> 13.3 µM | O=C(O)[C@H]1CN(C(c2ccccc2)P(=O)(O)O)CCN1 (some centres not stated)

SMILES | IC50
O=C(O)C1NCCC2CCC(P(=O)(O)O)CC21 (configuration not stated) | 5.6 µM
NC(CCP(=O)(O)O)C(=O)O (configuration not stated) | > 100 µM
N[C@@H](CNCP(=O)(O)O)C(=O)O | 4.3 µM
N[C@@]1(C(=O)O)CC[C@H](C(=O)O)C1 | 10 µM
O=C(O)CNC/C=C/CP(=O)(O)O | 1.2 µM
NC(CCCP(=O)(O)O)C(=O)O (configuration not stated) | 0.28 µM
NC(CCCCP(=O)(O)O)C(=O)O (configuration not stated) | 42 µM
NC(CCCCCP(=O)(O)O)C(=O)O (configuration not stated) [AP-7] | 0.77 µM
NC(CC(=O)NCP(=O)(O)O)C(=O)O (configuration not stated) | 2.8 µM

Biological target: T1, Glutamate NMDA receptor (Rattus norvegicus)
Experiment: Ability to displace [3H]CPP from N-methyl-D-aspartate glutamate receptor in rat brain membrane was evaluated at 10e-4 M
Format: cell membranes

inhibition | SMILES
22% | O=C(O)C1NCCc2ccc(CCP(=O)(O)O)cc21 (configuration not stated)
0% | O=C(O)C1NCCc2c1cccc2P(=O)(O)O (configuration not stated)
1% | NC(Cc1ccc(CP(=O)(O)O)cc1)C(=O)O (configuration not stated)
10% | NC(Cc1ccc(P(=O)(O)O)cc1)C(=O)O (configuration not stated)
